Like-named read-outs stand apart in the source and are kept apart here.
Columns and labels:
Assay type in all cases: cell-based
[1] = biological target: TRPML1 (Homo sapiens, UniProt Q9GZU1); experiment: Fluorescent TRPML1 assay (Fluo4-AM calcium fluorescence in doxycycline-induced HEK-293 Trex cells)
Outline: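 EC50 values come from non-linear regression of percent activity, normalized to on-plate positive and negative controls, with fluorescence read at 480 nm excitation and 540 nm emission. Fluo4-AM-loaded (1 µM) doxycycline-induced HEK-293 Trex cells expressing mutated human TRPML1 were exposed in 10 mM calcium Ringer's to 6 nM–20 µM compound, in triplicate.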

[2] = biological target: T1, TRPML2 (Homo sapiens, UniProt Q8IZK6); experiment: Fluorescent TRPML2 assay (performed as for TRPML1, substituting the TRPML2 subtype)
T1 construct: expressed in transfected cells
T1 sequence (Q8IZK6 1-566): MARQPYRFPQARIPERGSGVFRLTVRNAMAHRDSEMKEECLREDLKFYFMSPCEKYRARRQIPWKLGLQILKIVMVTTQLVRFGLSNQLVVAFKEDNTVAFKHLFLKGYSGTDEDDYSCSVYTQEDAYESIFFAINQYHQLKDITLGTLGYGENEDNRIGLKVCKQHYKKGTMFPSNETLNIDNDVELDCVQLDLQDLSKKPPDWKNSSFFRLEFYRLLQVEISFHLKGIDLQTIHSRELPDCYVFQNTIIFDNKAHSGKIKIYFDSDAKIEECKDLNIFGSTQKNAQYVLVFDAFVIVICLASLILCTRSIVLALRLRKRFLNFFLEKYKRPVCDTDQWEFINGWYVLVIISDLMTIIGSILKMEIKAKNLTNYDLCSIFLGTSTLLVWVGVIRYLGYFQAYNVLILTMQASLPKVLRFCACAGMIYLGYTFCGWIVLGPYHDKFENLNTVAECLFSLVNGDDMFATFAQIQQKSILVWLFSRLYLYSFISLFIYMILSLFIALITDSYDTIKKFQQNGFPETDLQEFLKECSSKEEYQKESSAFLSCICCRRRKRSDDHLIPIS
Outline: (§1)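 HEK-293 Trex cells with doxycycline-induced (0.5 ug/mL) surface-directed human TRPML subtype, loaded with 1 μM Fluo4-AM, resuspended in Ringer's with 10 mM calcium. Compounds at 20 μM to 6 nM final in half-log steps, triplicate; fluorescence ex 480/em 540; EC50 by non-linear regression versus plate controls.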

[3] = biological target: T2, TRPML3 (Homo sapiens, UniProt Q8TDD5); experiment: Fluorescent TRPML3 assay (performed as for TRPML1, substituting the TRPML3 subtype)
T2 construct: expressed in transfected cells
T2 sequence (Q8TDD5 1-553): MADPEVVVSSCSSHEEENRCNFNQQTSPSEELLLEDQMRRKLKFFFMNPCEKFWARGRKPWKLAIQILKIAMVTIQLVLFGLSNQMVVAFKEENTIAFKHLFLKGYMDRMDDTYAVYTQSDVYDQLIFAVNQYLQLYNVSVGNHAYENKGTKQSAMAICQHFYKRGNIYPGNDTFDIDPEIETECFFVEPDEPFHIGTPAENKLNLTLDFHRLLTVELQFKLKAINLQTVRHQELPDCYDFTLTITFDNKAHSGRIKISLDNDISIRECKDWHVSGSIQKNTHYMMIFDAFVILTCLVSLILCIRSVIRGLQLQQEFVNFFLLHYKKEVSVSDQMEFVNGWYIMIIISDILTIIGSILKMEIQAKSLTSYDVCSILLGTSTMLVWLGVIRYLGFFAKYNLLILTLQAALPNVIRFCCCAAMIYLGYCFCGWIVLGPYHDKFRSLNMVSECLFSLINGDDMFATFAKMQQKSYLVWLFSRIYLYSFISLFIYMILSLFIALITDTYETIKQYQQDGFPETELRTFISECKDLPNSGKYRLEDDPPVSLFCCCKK
Outline: as §1

Chain of TRPML1 (Q9GZU1 whole entry L15A/L16A/L577A/L578A, form open): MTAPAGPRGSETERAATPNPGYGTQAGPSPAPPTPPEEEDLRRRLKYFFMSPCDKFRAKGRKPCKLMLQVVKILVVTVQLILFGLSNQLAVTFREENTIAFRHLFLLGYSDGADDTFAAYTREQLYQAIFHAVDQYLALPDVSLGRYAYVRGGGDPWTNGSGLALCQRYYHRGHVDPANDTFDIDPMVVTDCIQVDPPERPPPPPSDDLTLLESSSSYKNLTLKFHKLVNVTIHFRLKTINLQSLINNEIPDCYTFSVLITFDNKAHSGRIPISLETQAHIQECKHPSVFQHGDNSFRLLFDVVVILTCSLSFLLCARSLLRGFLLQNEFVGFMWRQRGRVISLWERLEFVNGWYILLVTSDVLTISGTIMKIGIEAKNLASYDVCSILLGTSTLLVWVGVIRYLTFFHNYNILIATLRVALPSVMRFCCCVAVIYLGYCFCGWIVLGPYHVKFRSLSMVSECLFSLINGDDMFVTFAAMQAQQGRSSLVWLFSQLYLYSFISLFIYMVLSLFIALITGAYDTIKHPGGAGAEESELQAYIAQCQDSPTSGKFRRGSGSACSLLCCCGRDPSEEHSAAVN

Q: What does the source list for `C[C@@H]1CN(c2ncnc3c2c(C2CC2)cn3-c2cccc(F)c2)CCN1C(=O)OC(C)(C)C` [Compound 656, tert-butyl (R)-4-(5-cyclopropyl-7-(3-fluorophenyl)-7H-pyrrolo[2,3-d]pyrimidin-4-yl)-2-methylpiperazine-1-carboxylate]?
A: EC50 [1]: < 100 nM; EC50 [2]: 100 to 500 nM; EC50 [3]: < 100 nM

Q: What does the source list for `C[C@H]1CN(C(=O)OC(C)(C)C)CCN1c1ncnc2c1c(N1CCCC1)cn2-c1cccc(OC(F)(F)F)c1` [Compound 331, tert-butyl (S)-3-methyl-4-(5-(pyrrolidin-1-yl)-7-(3-(trifluoromethoxy)phenyl)-7H-pyrrolo[2,3-d]pyrimidin-4-yl)piperazine-1-carboxylate]?
A: EC50 ([1]; fluorescent calcium assay): < 100 nM; EC50 ([2]; fluorescent calcium assay): < 100 nM; EC50 ([3]; fluorescent calcium assay): < 100 nM

Q: `C[C@H]1CN(C(=O)OC(C)(C)C)CCN1c1nccc2c1c(C1CC1)cn2-c1cc(C#N)ccn1` [Compound 446, tert-butyl (S)-4-(1-(4-cyanopyridin-2-yl)-3-cyclopropyl-1H-pyrrolo[3,2-c]pyridin-4-yl)-3-methylpiperazine-1-carboxylate] was tested. Which EC50 ([1]; fluorescent calcium assay) did it give?
A: < 100 nM

Q: What about the EC50 ([2]; fluorescent calcium assay) of the same compound?
A: 100 to 500 nM

Q: What about the EC50 ([3]; fluorescent calcium assay) of the same compound?
A: < 100 nM

Q: What does the source list for `C[C@@H]1CN(c2ncnc3c2c(-c2ccccn2)cn3-c2cccc(Cl)c2)[C@@H](C)CN1C(=O)OC(C)(C)C` [Compound 117, tert-butyl (2R,5S)-4-(7-(3-chlorophenyl)-5-(pyridin-2-yl)-7H-pyrrolo[2,3-d]pyrimidin-4-yl)-2,5-dimethylpiperazine-1-carboxylate]?
A: EC50 ([1]; fluorescent calcium assay): < 100 nM; EC50 ([2]; fluorescent calcium assay): 100 to 500 nM; EC50 ([3]; fluorescent calcium assay): < 100 nM

Q: `Cc1cn(-c2cc(F)ccn2)c2ncnc(N3C[C@@H](C)N(C(=O)OC(C)(C)C)C[C@@H]3C)c12` [Compound 480, tert-butyl (2R,5S)-4-(7-(4-fluoropyridin-2-yl)-5-methyl-7H-pyrrolo[2,3-d]pyrimidin-4-yl)-2,5-dimethylpiperazine-1-carboxylate] was tested. Which EC50 ([1]; fluorescent calcium assay) did it give?
A: < 100 nM

Q: What about the EC50 ([2]; fluorescent calcium assay) of the same compound?
A: 500 to 2000 nM

Q: What about the EC50 ([3]; fluorescent calcium assay) of the same compound?
A: < 100 nM

Q: With `C[C@H]1CN(C(=O)OC(C)(C)C)CCN1c1ncnc2c1c(C1CC1)cn2-c1cc(F)ccn1` [Compound 453, tert-butyl (S)-4-(5-cyclopropyl-7-(4-fluoropyridin-2-yl)-7H-pyrrolo[2,3-d]pyrimidin-4-yl)-3-methylpiperazine-1-carboxylate] as the compound, how does the EC50 ([1]; fluorescent calcium assay) read?
A: < 100 nM

Q: And the EC50 ([2]; fluorescent calcium assay)?
A: 100 to 500 nM

Q: And the EC50 ([3]; fluorescent calcium assay)?
A: < 100 nM

Q: What does the source list for `C[C@H]1CN(C(=O)OCC(F)(F)F)CCN1c1ncnc2c1c(-c1ccccc1F)cn2-c1cc(C#N)ccn1` [Compound 349, 2,2,2-trifluoroethyl (S)-4-(7-(4-cyanopyridin-2-yl)-5-(2-fluorophenyl)-7H-pyrrolo[2,3-d]pyrimidin-4-yl)-3-methylpiperazine-1-carboxylate]?
A: EC50 ([1]; fluorescent calcium assay): < 100 nM; EC50 ([2]; fluorescent calcium assay): < 100 nM; EC50 ([3]; fluorescent calcium assay): < 100 nM

Q: Which results are given for `C[C@@H]1CN(c2ncnc3c2c(C2CC2)cn3-c2cc(F)cc(F)c2)[C@@H](C)CN1C(=O)OC(C)(C)C` [Compound 232, tert-butyl (2R,5S)-4-(5-cyclopropyl-7-(3,5-difluorophenyl)-7H-pyrrolo[2,3-d]pyrimidin-4-yl)-2,5-dimethylpiperazine-1-carboxylate]?
A: EC50 ([1]; fluorescent calcium assay): < 100 nM; EC50 ([2]; fluorescent calcium assay): 500 to 2000 nM; EC50 ([3]; fluorescent calcium assay): < 100 nM

Q: Which results are given for `CCN(CCOC)c1cn(-c2cc(C#N)ccn2)c2ncnc(N3CCN(C(=O)OC(C)(C)C)C[C@@H]3C)c12` [Compound 486, tert-butyl (S)-4-(7-(4-cyanopyridin-2-yl)-5-(ethyl(2-methoxyethyl)amino)-7H-pyrrolo[2,3-d]pyrimidin-4-yl)-3-methylpiperazine-1-carboxylate]?
A: EC50 ([1]; fluorescent calcium assay): < 100 nM; EC50 ([2]; fluorescent calcium assay): 100 to 500 nM; EC50 ([3]; fluorescent calcium assay): < 100 nM

Q: For `C[C@H]1CN(C(=O)OC(C)(C)C)CCN1c1ncnc2c1c(-c1cnccn1)cn2-c1cc(F)cc(F)c1` [Compound 237, tert-butyl-(S)-4-(7-(3,5-difluorophenyl)-5-(pyrazin-2-yl)-7H-pyrrolo[2,3-d]pyrimidin-4-yl)-3-methylpiperazine-1-carboxylate], which EC50 ([1]; fluorescent calcium assay) is on record?
A: 500 to 2000 nM

Q: And the EC50 ([2]; fluorescent calcium assay)?
A: 500 to 2000 nM

Q: And the EC50 ([3]; fluorescent calcium assay)?
A: 100 to 500 nM

Q: With `C[C@@H]1CN(c2ncnc3c2c(C(F)(F)F)cn3-c2cc(C#N)ccn2)[C@@H](C)CN1C(=O)OC(C)(C)C` [Compound 483, tert-butyl (2R,5S)-4-(7-(4-cyanopyridin-2-yl)-5-(trifluoromethyl)-7H-pyrrolo[2,3-d]pyrimidin-4-yl)-2,5-dimethylpiperazine-1-carboxylate] as the compound, how does the EC50 ([1]; fluorescent calcium assay) read?
A: < 100 nM

Q: And the EC50 ([2]; fluorescent calcium assay)?
A: < 100 nM

Q: What about the EC50 ([3]; fluorescent calcium assay) of the same compound?
A: < 100 nM

Q: `CC(C)(C)OC(=O)N1CCN(c2ncnc3c2c(C2CC2)cn3-c2ccc(Cl)cc2)CC1` [Compound 107, tert-butyl 4-(7-(4-chlorophenyl)-5-cyclopropyl-7H-pyrrolo[2,3-d]pyrimidin-4-yl) piperazine-1-carboxylate] was tested. Which EC50 ([1]; fluorescent calcium assay) did it give?
A: < 100 nM

Q: What about the EC50 ([2]; fluorescent calcium assay) of the same compound?
A: 100 to 500 nM

Q: And the EC50 ([3]; fluorescent calcium assay)?
A: < 100 nM

Q: `C[C@@H]1CN(c2ncnc3c2c(N2CCC[C@H]2C)cn3-c2cccc(Cl)c2)CCN1C(=O)OC(C)(C)C` [Compound 299, tert-butyl (R)-4-(7-(3-chlorophenyl)-5-((R)-2-methylpyrrolidin-1-yl)-7H-pyrrolo[2,3-d]pyrimidin-4-yl)-2-methylpiperazine-1-carboxylate] was tested. Which EC50 ([1]; fluorescent calcium assay) did it give?
A: 500 to 2000 nM

Q: And the EC50 ([2]; fluorescent calcium assay)?
A: > 2000 nM

Q: And the EC50 ([3]; fluorescent calcium assay)?
A: 500 to 2000 nM

Q: `C[C@H]1CN(C(=O)OC(C)(C)C)CCN1c1ncnc2c1c(-c1ccccn1)cn2-c1cccc(Cl)c1` [Compound 119, tert-butyl (S)-4-(7-(3-chlorophenyl)-5-(pyridin-2-yl)-7H-pyrrolo[2,3-d]pyrimidin-4-yl)-3-methylpiperazine-1-carboxylate] was tested. Which EC50 ([1]; fluorescent calcium assay) did it give?
A: < 100 nM

Q: And the EC50 ([2]; fluorescent calcium assay)?
A: 100 to 500 nM

Q: What about the EC50 ([3]; fluorescent calcium assay) of the same compound?
A: < 100 nM

Q: Which results are given for `C[C@H]1CN(C(=O)OC(C)(C)C)CCN1c1ncnc2c1c(N1CCC[C@@H]1CO)cn2-c1cccc(Cl)c1` [Compound 312, tert-butyl (S)-4-(7-(3-chlorophenyl)-5-((R)-2-(hydroxymethyl)pyrrolidin-1-yl)-7H-pyrrolo[2,3-d]pyrimidin-4-yl)-3-methylpiperazine-1-carboxylate]?
A: EC50 ([1]; fluorescent calcium assay): 100 to 500 nM; EC50 ([2]; fluorescent calcium assay): 500 to 2000 nM; EC50 ([3]; fluorescent calcium assay): < 100 nM

Q: Which results are given for `C[C@@H]1CN(c2ncnc3c2c(N2CC4(COC4)C2)cn3-c2cc(C#N)ccn2)[C@@H](C)CN1C(=O)OC(C)(C)C` [Compound 504, tert-butyl (2R,5S)-4-(7-(4-cyanopyridin-2-yl)-5-(2-oxa-6-azaspiro[3.3]heptan-6-yl)-7H-pyrrolo[2,3-d]pyrimidin-4-yl)-2,5-dimethylpiperazine-1-carboxylate]?
A: EC50 [1]: < 100 nM; EC50 [2]: 100 to 500 nM; EC50 [3]: < 100 nM

Q: How did the EC50 [1] turn out when `C[C@@H]1CN(c2ncnc3c2c(N2CCC2)cn3-c2cccc(F)c2)[C@@H](C)CN1C(=O)OC(C)(C)C` [Compound 635, tert-butyl (2R,5S)-4-(5-(azetidin-1-yl)-7-(3-fluorophenyl)-7H-pyrrolo[2,3-d]pyrimidin-4-yl)-2,5-dimethylpiperazine-1-carboxylate] was run?
A: < 100 nM

Q: What about the EC50 [2] of the same compound?
A: 100 to 500 nM

Q: And the EC50 [3]?
A: 100 to 500 nM

Q: With `CC(C)(C)OC(=O)N1CCN(c2ncnc3c2c(-c2ccccn2)cn3-c2ccc(F)c(Cl)c2)CC1` [Compound 151, tert-butyl 4-(7-(3-chloro-4-fluorophenyl)-5-(pyridin-2-yl)-7H-pyrrolo[2,3-d]pyrimidin-4-yl)piperazine-1-carboxylate] as the compound, how does the EC50 ([1]; fluorescent calcium assay) read?
A: 100 to 500 nM

Q: What about the EC50 ([2]; fluorescent calcium assay) of the same compound?
A: 100 to 500 nM

Q: And the EC50 ([3]; fluorescent calcium assay)?
A: 100 to 500 nM

Q: With `C[C@H]1CN(C(=O)OC(C)(C)C(F)(F)F)CCN1c1ncnc2c1c(-c1ccccc1)cn2-c1cnn(C)c1` [Compound 183, 1,1,1-trifluoro-2-methylpropan-2-yl(S)-3-methyl-4-(7-(1-methyl-1H-pyrazol-4-yl)-5-phenyl-7H-pyrrolo[2,3-d]pyrimidin-4-yl)piperazine-1-carboxylate] as the compound, how does the EC50 ([1]; fluorescent calcium assay) read?
A: 100 to 500 nM

Q: And the EC50 ([2]; fluorescent calcium assay)?
A: 500 to 2000 nM

Q: And the EC50 ([3]; fluorescent calcium assay)?
A: 100 to 500 nM

Q: Which results are given for `C[C@H]1CN(C(=O)OC(C)(C)C)CCN1c1ncnc2c1c(-c1cncnc1)cn2-c1cccc(Cl)c1` [Compound 327, tert-butyl (S)-4-(7-(3-chlorophenyl)-5-(pyrimidin-5-yl)-7H-pyrrolo[2,3-d]pyrimidin-4-yl)-3-methylpiperazine-1-carboxylate]?
A: EC50 ([1]; fluorescent calcium assay): 100 to 500 nM; EC50 ([2]; fluorescent calcium assay): 500 to 2000 nM; EC50 ([3]; fluorescent calcium assay): < 100 nM

— patent US20250136606A1, “MODULATORS OF TRPML, THEIR COMPOSITIONS AND METHODS OF USE” (Caraway Therapeutics, Inc., priority 2021, published 2025)
